Values quoted from earlier work in patent EP3124016B1, “ANTIPSORIATIC EMULSION COMPOSITION COMPRISING CEFAZOLIN” (Warszawski Uniwersytet Medyczny, priority 2015, dated 2017).
Structures can show the parent of a compound that is named as a salt.

Conditions: 1% aqueous solution

Cc1nnc(SCC2=C(C(=O)O)N3C(=O)[C@@H](NC(=O)Cn4cnnn4)[C@H]3SC2)s1 [cefazolin sodium salt]
time for which eye drops were stable (stored at 4°C): 42 days | time for which stability lasted (eye drops, storage in room temperature): only for a few days
